Source: paper PMC6403271, “Characterization, mechanism of action and optimization of activity of a novel peptide-peptoid hybrid against bacterial pathogens involved in canine skin infections” (Scientific Reports, 2019)
Square brackets hold non-standard residues; d marks the D form. Peptide text beside a SMILES is read from it. N(1-naphthylmethyl)Gly = O=C(O)CNCc1cccc2ccccc12; d1Nal = N[C@H](Cc1cccc2ccccc12)C(=O)O; N(4-MeBn)Gly = Cc1ccc(CNCC(=O)O)cc1; dNle = CCCC[C@@H](N)C(=O)O; NBuGly = CCCCNCC(=O)O

Assays:
[1] = Precipitation in time-kill media; type: physicochemical; conditions: time-kill experiment against P. aeruginosa, MHB II
Procedure: Time kill assays were performed in triplicate, meaning that every value is the average of three different samplings. Time–kill kinetic assays were performed using P. aeruginosa (26314), MRSP E104 and/or MRSP C22963 to determine the cell killing activity of B1 and two of its most promising analogues (compounds 23 and 26) based on prior antimicrobial susceptibility testing. The method reported by Blondeau et al.[63] was followed with minor modifications. Briefly, the assay was performed in MHB II with concentrations corresponding to 0.5, 1, 2 and 4 times the MIC of the strain. After 0, 15, 30, 60, 120, 180 and 300 min of growth, 100 μL aliquots were collected and 10-fold serially diluted. Twenty μL of cell suspension from each dilution were spotted in triplicate on blood agar plates followed by 16–18 h incubation at 37 °C and determination of colony forming units (CFU).

[2] = system: cell wall synthesis in MRSP E104; experiment: Macromolecule biosynthesis rate, cell wall (3H-glucosamine); type: cell-based, Staphylococcus pseudintermedius; conditions: MRSP E104, 1.5 µg/mL, 20 min
Procedure: Macromolecule biosynthesis rate was measured in MRSP E104 following a protocol adapted from Ling et al.[65]. Briefly, E104 overnight culture was sub-cultured 1:100 in MHB II and grown up to OD 0.2 at 600 nm. Cells were pelleted down by centrifugation and resuspended in fresh medium followed by incubation for 20 min with B1 or nisin at 1.5 µg/ml and 1.25 µg/ml, respectively, and radiolabeled precursor: (50µCi) 3H-Thymidine (PerkinElmer) and (5µCi) 3H-glucosamine hydrochloride per ml for DNA and cell wall, respectively. A positive control without antimicrobial was maintained. After incubation, samples were precipitated with equal volume of cold 30% TCA (Sigma) on ice. Precipitates were filtered on a membrane filter and subsequently subjected to two washes of cold 15% TCA and two washes of cold water using vacuum manifold. Subsequently, filters were air dried overnight and then transferred to 10 ml scintillation vials. Finally, scintillation fluid (3 ml) was added to each vial and ^3H count was taken in Beckman Coulter LS6500 liquid scintillation counter for one minute. The radioactive counts of the control samples were considered to have 100% precursor incorporation and macromolecule synthesis. The percentage rates of the antimicrobial-exposed samples were calculated accordingly. Each experiment was performed with replicates and the average rates of incorporation were plotted.

P. aeruginosa isolates = experiment: MIC, panel of 50 canine P. aeruginosa isolates; type: cell-based, Pseudomonas aeruginosa
Procedure: Activity of B1 was tested on 50P. aeruginosa isolates and 57S. pseudintermedius isolates (including 7 MRSP) that had been isolated in the diagnostic laboratory Sund Vet Diagnostik (University of Copenhagen) from various infections in dogs between 2009 and 2011. Representative MRSP (C22963), MSSA, and P. aeruginosa (26314) were used for testing the first set of B1 analogues.
MIC determination was performed by broth microdilution according to the Clinical and Laboratory Standard Institute (CLSI, M31-A3, 2008)[62]. In brief, each bacterial strain was diluted to concentration of 5 × 10^5 CFU/mL in Mueller Hinton broth II (MHB II) media (Oxoid) and added to a two-fold serial dilution of peptides and peptide-peptoid hybrids concentrations ranging from 1 to 64 µg/ml in 96-well plates (Nunc Internationals, Rochester, NY). The MICs were determined as a lowest concentration showing no visible growth after incubation for 18 hours at 37 °C. Experiments were performed in triplicates on two different days.

Pronase = conditions: cited from earlier work
MSSA (ATCC 29213) = type: cell-based, Staphylococcus aureus; conditions: ATCC 29213, 18 h
Summary of the method: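 Broth microdilution per CLSI M31-A3 on canine clinical isolates plus reference MRSP C22963, MSSA and P. aeruginosa 26314; 5 × 10^5 CFU/mL in MHB II with two-fold dilutions from 1 to 64 µg/ml. MIC = lowest concentration without visible growth after 18 hours at 37 °C; triplicates on two days.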

SMILES	precipitation in the media [1]	reduction in cell wall synthesis [2] [%]	MICs against a panel of 50 P. aeruginosa isolates (P. aeruginosa isolates) [µg/mL]	degradation by protease mix Pronase (Pronase) [%]	Minimum Inhibitory Concentration MSSA (ATCC 29213) (MSSA (ATCC 29213)) [µg/mL]
CCCC[C@@H](NC(=O)[C@H](CCCCN)NC(=O)[C@H](CCCCN)NC(=O)[C@@H](N)CCCCN)C(=O)N[C@H](Cc1cccc2ccccc12)C(=O)N[C@H](Cc1ccccc1)C(=O)N[C@H](Cc1cccc2ccccc12)C(N)=O [Compound 26, Lys-Lys-Lys-nle-(1-Nal)ala-phe-(1-Nal)ala] (H-KKK[dNle][d1Nal][dF][d1Nal]-NH2; N-terminus assumed)	precipitated after 15 min	–	–	–	–
CCCCN(CC(=O)N[C@@H](CCCCN)C(=O)N(CC(=O)N(CC(=O)N(CC(N)=O)Cc1cccc2ccccc12)Cc1ccc(C)cc1)Cc1cccc2ccccc12)C(=O)[C@H](CCCCN)NC(=O)[C@@H](N)CCCCN [B1, Lys-Lys-(NBu)Gly-Lys-(N1-Nal)Gly-(N4-MeBn)Gly-(N1-Nal)Gly] (H-KK[NBuGly]K[N(1-naphthylmethyl)Gly][N(4-MeBn)Gly][N(1-naphthylmethyl)Gly]-NH2)	–	20	8 to 16	38	8 to 16
